Data set [1] can be described thus: log P by HPLC on reversed-phase column (C18), EEC directive 79/831 Annex V.A8. The format is physicochemical. The following applies: for log p: data refer to the E isomer. The method, then:
The log P values reported in the tables and Preparation Examples above were determined in accordance with EEC directive 79/831 Annex V.A8 by HPLC (High Performance Liquid Chromatography) using a reversed-phase column (C18). Temperature 43° C. The calibration is effected with unbranched alkan-2-ones (having 3 to 16 carbon atoms), for which the log P values are known.

The subject of another data set is Spodoptera frugiperda. The experiment in a line: Spodoptera frugiperda - spray test (SPODFR). The format is in vivo. Particulars: application rate 100 g/ha, maize leaf disks. The method, then: Spodoptera frugiperda—Spray Test (SPODFR)
Solvent: 78.0 parts by weight of acetone • • 1.5 parts by weight of dimethylformamide
Emulsifier: 0.5 parts by weight of alkylaryl polyglycol ether
To produce a suitable active compound preparation, 1 part by weight of active compound is mixed with the stated amounts of solvent and emulsifier, and the concentrate is diluted with emulsifier-containing water to the desired concentration.
Leaf disks of maize (Zea mays) are sprayed with an active compound preparation of the desired concentration and, after drying, populated with caterpillars of the armyworm (Spodoptera frugiperda).
After the desired period of time, the efficacy in % is determined. 100% means that all the caterpillars have been killed; 0% means that no caterpillars have been killed.

The mark [2] stands for this setting: Table A, HPLC reversed-phase C18, 43° C.
The mark [3] stands for this setting: reversed-phase HPLC column (C18), HPLC-MS data in the preparation text, HPLC reversed-phase C18, 43° C., read-out: log P.
The mark [4] stands for this setting: Table C, HPLC reversed-phase C18, 43° C.

Read-outs that look alike come from different tables or passages of the source.

The compound `COCCOC(=O)NN(C)C(=O)c1cc(C=NOC)cc(C)c1NC(=O)c1cc(C(F)(F)F)nn1-c1ncccc1Cl` [A-27] displayed a log p in data set [1] (setting [2]) of 3.05. The “efficacy (caterpillars killed)” value in the data set on Spodoptera frugiperda was 100%.

As for `CC(C)Oc1cc(C(=O)O)n(-c2ncccc2Cl)n1` [1-(3-chloropyridin-2-yl)-3-isopropoxy-1H-pyrazole-5-carboxylic acid], in data set [1] (setting [3]), the chromatographic logP is 1.76.

With `Cc1cc(C=O)cc(C(=O)O)c1N` [IX-1, 2-Amino-5-formyl-3-methylbenzoic acid], in data set [1] (setting [3]), the chromatographic logP came to 1.02.

`CON=Cc1cc(C)c2nc(-c3cc(OC(F)F)nn3-c3ncccc3Cl)oc(=O)c2c1` [2-[1-(3-Chloropyridin-2-yl)-3-(difluoromethoxy)-1H-pyrazol-5-yl]-8-methyl-4-oxo-4H-3,1-benzoxazine-6-carbaldehyde O-methyl oxime]: in data set [1] (setting [3]), the chromatographic logP worked out at 3.93.

Take `CCOC(=O)c1cc(OCC(F)F)nn1-c1ncccc1Cl` [Ethyl 1-(3-chloropyridin-2-yl)-3-(2,2-difluoroethoxy)-1H-pyrazole-5-carboxylate]: the chromatographic logP in data set [1] (setting [3]) came out at 2.74.

In data set [1] (setting [4]), `CON=Cc1cc(C)c(NC(=O)c2cc(C(F)F)nn2-c2ncccc2Cl)c(C(=O)N(C)C)c1` [C-61] displayed a log p of 2.47. In addition, the “efficacy (caterpillars killed)” value in the data set on Spodoptera frugiperda turned out to be 100%.

In turn, `CCOC(=O)NN(C)C(=O)c1cc(C=NOC)cc(C)c1NC(=O)c1cc(C(F)(F)F)nn1-c1ncccc1Cl` [A-24] registered a log p in data set [1] (setting [2]) of 3.31. Besides, the “efficacy (caterpillars killed)” value in the data set with Spodoptera frugiperda is on record as 100%.

Consider `O=C(O)c1cc(OCc2ccc(C(F)(F)F)nc2)nn1-c1ncccc1Cl` [1-(3-chloropyridin-2-yl)-3-{[6-(trifluoromethyl)pyridin-3-yl]methoxy}-1H-pyrazole-5-carboxylic acid], for which the chromatographic logP in data set [1] (setting [3]) amounted to 1.59.

As for `CON=Cc1cc(C)c2nc(-c3cc(OCC(F)F)nn3-c3ncccc3Cl)oc(=O)c2c1` [2-[1-(3-Chloropyridin-2-yl)-3-(2,2-difluoroethoxy)-1H-pyrazol-5-yl]-8-methyl-4-oxo-4H-3,1-benzoxazine-6-carbaldehyde O-methyl oxime], the chromatographic logP in data set [1] (setting [3]) worked out at 3.92.

As to `CON=Cc1cc(C)c(NC(=O)c2cc(OC(C)C)nn2-c2ncccc2Cl)c(C(=O)NC2COC2)c1` (mixture of isomers) [B-07], in data set [1] (Table B, HPLC reversed-phase C18, 43° C.), the log p was 2.57. Besides, the “efficacy (caterpillars killed)” value with Spodoptera frugiperda turned out to be 100%.

On to `CO/N=C/c1cc(C)c(N)c(C(=O)O)c1` [VIII-1, 2-Amino-5-[(E)-(methoxyimino)methyl]-3-methylbenzoic acid], for which the chromatographic logP in data set [1] (setting [3]) came to 1.73.

Turning to `O=C(O)c1cc(OCC(F)F)nn1-c1ncccc1Cl` [1-(3-Chloropyridin-2-yl)-3-(2,2-difluoroethoxy)-1H-pyrazole-5-carboxylic acid], the chromatographic logP in data set [1] (setting [3]) was 1.59.

Compound `CON=Cc1cc(C)c(NC(=O)c2cc(Br)nn2-c2ncccc2Cl)c(C(=O)N(NS(C)(=O)=O)S(C)(=O)=O)c1` [A-12] yielded a log p in data set [1] (setting [2]) of 2.99. In the data set on Spodoptera frugiperda, the “efficacy (caterpillars killed)” value amounted to 100%.

In data set [1] (log P), `CO/N=C/c1cc(C)c(NC(=O)c2cc(OC(F)F)nn2-c2ncccc2Cl)c(C(=O)NN)c1` [1-(3-Chloropyridin-2-yl)-3-(difluoromethoxy)-N-{2-(hydrazinocarbonyl)-4-[(E)-(methoxyimino)methyl]-6-methylphenyl}-1H-pyrazole-5-carboxamide] came in with a chromatographic logP of 2.12.

In the case of `O=C(O)c1cc(CF)nn1-c1ncccc1Cl` [1-(3-Chloropyridin-2-yl)-3-(fluoromethyl)-1H-pyrazole-5-carboxylic acid], in data set [1] (setting [3]), the chromatographic logP amounted to 1.03.

Regarding `CON=Cc1cc(C)c(NC(=O)c2cc(OC)nn2-c2ncccc2Cl)c(C(=O)N(C)C)c1` [C-40], in data set [1] (setting [4]), the log p is given as 2.16.

For `CCOc1cc(C(=O)O)n(-c2ncccc2Cl)n1` [1-(3-chloropyridin-2-yl)-3-ethoxy-1H-pyrazole-5-carboxylic acid], the chromatographic logP in data set [1] (setting [3]) is 1.47.

With `COC(=O)c1cc(CF)nn1-c1ncccc1Cl` [Methyl 1-(3-chloropyridin-2-yl)-3-(fluoromethyl)-1H-pyrazole-5-carboxylate], in data set [1] (setting [3]), the chromatographic logP was 1.9.
